Test results reported in ChEMBL document CHEMBL4321793, “Can Cysteine Protease Cross-Class Inhibitors Achieve Selectivity?” (J Med Chem, 2019).

Key:
Procathepsin L [1] = biological target: T1, Procathepsin L (Homo sapiens, UniProt P07711); assay: Inhibition of human cathepsin L
Rhodesain = Rhodesain (Trypanosoma brucei rhodesiense, UniProt Q95PM0); assay: Inhibition of Trypanosoma brucei rhodesiense rhodesain
Cruzipain = Cruzipain (Trypanosoma cruzi, UniProt P25779); assay: Reversible inhibition of Trypanosoma cruzi cruzipain
Cruzipain, sequence (P25779 whole entry): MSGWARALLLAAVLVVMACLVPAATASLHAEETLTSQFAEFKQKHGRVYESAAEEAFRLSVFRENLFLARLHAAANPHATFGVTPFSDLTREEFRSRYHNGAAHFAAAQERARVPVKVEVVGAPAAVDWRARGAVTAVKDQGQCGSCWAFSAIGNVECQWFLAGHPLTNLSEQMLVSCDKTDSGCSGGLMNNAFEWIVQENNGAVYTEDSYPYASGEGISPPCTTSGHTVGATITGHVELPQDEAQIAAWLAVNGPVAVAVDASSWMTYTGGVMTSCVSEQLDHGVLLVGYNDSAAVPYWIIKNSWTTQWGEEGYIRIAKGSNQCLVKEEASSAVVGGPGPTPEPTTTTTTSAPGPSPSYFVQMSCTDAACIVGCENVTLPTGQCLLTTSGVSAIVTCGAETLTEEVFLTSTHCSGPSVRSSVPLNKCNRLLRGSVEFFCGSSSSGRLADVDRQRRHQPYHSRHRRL

Procathepsin L [2] = biological target: T1, Procathepsin L; assay: Reversible inhibition of human cathepsin L
Cathepsin B = Cathepsin B (Homo sapiens, UniProt P07858); assay: Reversible inhibition of human cathepsin B
[3] = tested on: human cathepsin L versus Trypanosoma cruzi cruzipain; assay: Selectivity ratio of IC50 for reversible inhibition of human cathepsin L to IC50 for reversible inhibition of Trypanosoma cruzi cruzipain; format: toxicity; conditions: read-out: Ratio IC50
[4] = tested on: human cathepsin B versus Trypanosoma cruzi cruzipain; assay: Selectivity ratio of IC50 for reversible inhibition of human cathepsin B to IC50 for reversible inhibition of Trypanosoma cruzi cruzipain; format: toxicity; conditions: read-out: Ratio IC50

T1 sequence (P07711 whole entry): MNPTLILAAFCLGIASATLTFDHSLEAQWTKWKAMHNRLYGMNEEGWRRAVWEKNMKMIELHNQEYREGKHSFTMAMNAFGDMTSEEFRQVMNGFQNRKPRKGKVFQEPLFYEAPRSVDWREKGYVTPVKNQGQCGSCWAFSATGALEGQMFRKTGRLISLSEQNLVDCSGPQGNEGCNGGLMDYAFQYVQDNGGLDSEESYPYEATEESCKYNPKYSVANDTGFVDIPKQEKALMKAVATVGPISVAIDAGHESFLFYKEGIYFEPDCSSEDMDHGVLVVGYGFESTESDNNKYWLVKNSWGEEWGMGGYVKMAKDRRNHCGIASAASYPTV
Rhodesain, sequence (Q95PM0 whole entry): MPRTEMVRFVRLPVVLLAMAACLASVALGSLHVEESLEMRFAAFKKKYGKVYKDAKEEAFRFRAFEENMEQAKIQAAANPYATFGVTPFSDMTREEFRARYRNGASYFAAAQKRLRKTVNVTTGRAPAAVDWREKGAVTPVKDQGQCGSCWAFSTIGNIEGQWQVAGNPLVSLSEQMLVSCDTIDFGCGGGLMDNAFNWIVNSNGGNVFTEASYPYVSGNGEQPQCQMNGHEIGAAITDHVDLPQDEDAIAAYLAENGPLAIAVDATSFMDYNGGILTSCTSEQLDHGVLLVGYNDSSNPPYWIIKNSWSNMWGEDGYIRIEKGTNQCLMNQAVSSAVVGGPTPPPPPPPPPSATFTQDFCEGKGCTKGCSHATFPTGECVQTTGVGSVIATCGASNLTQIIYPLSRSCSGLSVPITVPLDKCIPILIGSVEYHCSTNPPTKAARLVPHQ

IC50 (Cruzipain) | IC50 (Procathepsin L [2]) | IC50 (Cathepsin B) | Structure (SMILES) | Ki (Procathepsin L [1]) | Ki (Rhodesain) | selectivity ratio [3] | selectivity ratio [4]
 |  |  | N#Cc1nc(N2CCOCC2)nc(N(Cc2ccc3c(c2)OCO3)C2CCCCC2)n1 | 33 nM |  |  | 
 |  |  | CCC[C@H]1CC[C@H](N(Cc2ccc3c(c2)OCO3)c2nc(C#N)nc(N3CCOCC3)n2)CC1 | 690 nM | 2 nM |  | 
0.8 nM | 47 nM | 1110 nM | CC(C)(F)C[C@H](N[C@@H](c1ccc(-c2ccc(N3CCNCC3)cc2)cc1)C(F)(F)F)C(=O)NCC#N |  |  | 58 | 1390
